# Test results published in patent publication US20250144050A1, “AMINOTHIOL-CONJUGATES, COMPOSITIONS, AND METHODS OF USE THEREOF” (THE BURLINGTON HC RESEARCH GROUP, INC., priority 2021, published 2025).
# Read-outs that look alike come from different tables or passages of the source.
# Assays:
# [1] = tested on: Normal human mammary epithelial cells (M99005); assay: Trypan Blue cell count, normal cells, 48 hours; type: cell-based
# Procedure: For comparison purposes, the growth inhibitory does of 4SP65 required to reduce the growth of normal human mammary epithelial cells by 50% was above 300 micromolar. The exact value has not been determined as of yet due to the fact that 4SP65 forms a hydrogel in medium when present at a concentration that exceeds 300 micromolar.
# Normal human mammary epithelial cells were grown as described in Example 1, with the exception that the growth medium was as MEBM (purchased from American Type Tissue Culture Collection). When the cells had reach 50 to 60%, the growth medium was removed and medium supplemented with 0 to 300 microM 4SP65 was added to each well containing cells. At 48 hours, the cells were removed by trypsinization stained with Trypan Blue, and counted using a hemocytometer. […] The finding of a biphasic growth inhibition curve for WR-1065 has been reported previously (Calabro-Jones et al. “The limits to radioprotection of Chinese hamster V79 cells by WR-1065 under aerobic conditions.” Radiat Res. 149:550-559 (1998), which is hereby incorporated by reference in its entirety). Additional experiments now have been completed and are described infra).
# HEK-293t cells = type: cell-based
# Procedure: (§1) To determine potential cytostatic or cytocidal effects of BRG prodrugs in immortalized, non-tumorigenic cells, Vero, HEK-293t, LP9, and HPM3 cells were exposed to 4SP65 while only Vero cells also were treated with 1LP65. […] Comparisons across other dose-response metrics could not be made because such levels of effects were not induced in NHMECs exposed to 4SP65. […] Since cytostatic and cytolytic effects at the TGI and LC50/99 levels were induced in Vero cells exposed to 1LP65 but not in NHMECs, there is a significant difference in the effects of 1LP65 in Vero cells compared to NHMECs, but p values based upon t-test evaluations cannot be defined due to lack of numerical data.
# LP9 cells = type: cell-based
# Procedure: as §1
# human cancer cell lines = assay: CyQUANT cell viability assay, 48-hour exposure, panel averages; conditions: for fold greater cytostatic effect than amifostine: HCC38, PC3, SKOV3, TOV21G (amifostine GI50 <100 μM); for fold more potent than amifostine as a cytostatic agent, averaging: averages of dose-response metrics across panel
# Procedure: After drug treatments, fluorescence readings from 96-well plates were obtained using the CyQUANT dye and compared to standard curves for each cell line to determine cell viability. […] Trypan blue exclusion was used to estimate cell numbers in a few pilot experiments and was thereafter applied to confirm cell death.
# A series of experiments was conducted to assess the relative efficacy of 4SP65, 1LP65, and amifostine as single agents in the same human cancer cell lines. First, the effectiveness of 4SP65 was tested against 15 cancer cell lines derived from seven tissues. […] The effectiveness of 0 to ≤500 μM amifostine was tested in sets of cancer cell lines reported to have either medium, high, or no expression of alkaline phosphatase.
# Trans. R Soc. Lond. […] Using cell numbers based on fluorescence measurements and standard curves [time zero, (Tz), control growth, (C), and test growth in the presence of drug at five or more concentration levels (Ti)], the percentage growth was calculated at each drug concentration level. The percentage of growth inhibition was calculated as follows:
# The LC50/99 was calculated using Equation 2=−50 and Eq. 2=−99, respectively. […] For NHMECs, the relationships between drug exposure levels and fluorescence units were used to define dose-response metrics. The selectivity index (SI) values for individual drug treatments were calculated as IC50 levels in NHMECs divided by the IC50 values in cancer cell lines.
# Vero cells = assay: Dose-response metrics in immortalized, non-tumorigenic cells; type: cell-based
# Procedure: as §1
# SK-OV-3 = assay: Trypan Blue cell count after 48 hour exposure; type: cell-based, human; conditions: read-out: Average Growth Inhibitory Dose 50% [EC50], Ovarian CA (SK-OV-3)
# Procedure: (§2) To evaluate the anticancer activity of 4-arm star polyethylene glycol conjugated to WR-1065 (4SP65), the anticancer efficacy of 4SP65 was determined in some of the same cell lines used by NIH/NCI, and the methodology used was the same as is used by the NCI to evaluate chemotherapeutic agents currently in use (O'Connor et al., “Characterization of the p53 Tumor Suppressor Pathway in Cell Lines of the National Cancer Institute Anticancer Drug Screen and Correlations With the Growth-Inhibitory Potency of 123 Anticancer Agents,” Cancer Res. 57 (19): 4285-300 (1997), which is hereby incorporated by reference in its entirety). Testing of 6 cancer types was completed: (i) breast cancer (MDA-MB-231 cells), (ii) lung cancer (A549), (iii) prostate cancer cell line (LNCaP), (iv) myelogenous leukemia (HL60 cells), (v) ovarian cancer (SK-OV-3), and (vi) prostate cancer (DU-145).
# (§3) Each cell line was grown in medium as recommended by the ATCC or as presented in the literature for that cell line. All cells were cultured in a water jacket incubator at 36-37° C. and in the presence of 5% CO2. To ensure optimal growth and viability, all cells were grown on plates coated with FNC (In Vitrogen). Cells were refed with growth medium twice weekly until they had reached 60 to 70% confluence. At this point, the medium was replaced with growth medium supplemented with 4SP65 at doses ranging from 0 to up to 300 micromolar. Cells were allowed to grow in the presence of this supplemented medium for 48 hours, and then they were removed by trypsinization, stained with Trypan Blue and counted in a hemocytometer. Three to four replicates for each dose group per experiment were performed. The percentage cell death was determined by comparing the average number of surviving cells exposed to 4SP65 versus the average number of surviving sham exposed cells.
# HL60 cells = assay: Trypan Blue cell count after 48 hour exposure; type: cell-based, human; conditions: read-out: Average Growth Inhibitory Dose 50% [EC50], Myelogenous Leukemia (HL60)
# Procedure: as §2, §3
# LNCaP = assay: Trypan Blue cell count after 48 hour exposure; type: cell-based, human; conditions: read-out: Average Growth Inhibitory Dose 50% [EC50], Prostate cancer cell line (LNCaP)
# Procedure: as §2, §3
# A549 = assay: Trypan Blue cell count after 48 hour exposure; type: cell-based, human; conditions: read-out: Average Growth Inhibitory Dose 50% [EC50], Lung CA (A549)
# Procedure: as §2, §3
# MDA-MB-231 cells = assay: Trypan Blue cell count after 48 hour exposure; type: cell-based, human; conditions: read-out: Average Growth Inhibitory Dose 50% [EC50], Breast CA (MDA-MB-231)
# Procedure: as §2, §3
# [2] = 48-hour, 15 cancer cell lines (4SP65), 11 (1LP65)
compound,measurement,setting,value
4-star PEG-S-S-WR1065 [4SP65],inhibition of cell growth,"[1]; 0 to 300 microM except 100 microM, 48 hours",No inhibition of cell growth was observed
same,EC50,"[1]; normal human mammary epithelial cells, read-out: growth inhibitory dose required to reduce growth by 50%",> 300 µM
same,CC50,HEK-293t cells,60.6 µM
same,GI50,HEK-293t cells; HEK-293t,15.8 µM
same,LC99,HEK-293t cells; HEK-293t,62.4 µM
same,TGI,HEK-293t cells; HEK-293t,58.8 µM
same,CC50,LP9 cells,19 µM
same,GI50,LP9 cells; LP9,9.2 µM
same,TGI,LP9 cells; LP9,13.5 µM
same,fold greater potency than predicted by ratio of four vs one WR1065/molecule,human cancer cell lines; 4SP65 versus 1LP65,~2.5 fold
same,"LC99, average across cell lines",human cancer cell lines; [2],11.2 µM
same,"LC99, range",human cancer cell lines; [2],3.0 to 21.1 µM
same,"TGI, average across cell lines",human cancer cell lines; [2],6.8 ± 1.1 µM
same,"TGI, range",human cancer cell lines; [2],2.0 to 16.3 µM
same,fold greater cytostatic effect than amifostine,human cancer cell lines,38 fold
same,"fold more potent than 1LP65, averaging",human cancer cell lines; across dose-response metrics,10.4 fold
same,"fold more potent than amifostine as a cytostatic agent, averaging",human cancer cell lines,55 fold
same,GI50,"human cancer cell lines; read-out: GI50, average across cell lines, 48-hour, 15 cancer cell lines (4SP65), 11 (1LP65)",4.1 ± 0.8 µM
same,GI50,"human cancer cell lines; read-out: average GI50, HCC38, PC3, SKOV3, and TOV21G",1.7 µM
same,CC50,Vero cells,11.6 ± 6.3 µM
same,GI50,Vero cells; VERO,2.9 ± 1.4 µM
same,LC99,Vero cells; VERO,14.0 ± 9.9 µM
same,TGI,Vero cells; VERO,6.4 ± 2.6 µM
same,EC50,SK-OV-3,5 µM
same,EC50,HL60 cells,3000 nM
same,EC50,LNCaP,9.5 µM
same,EC50,A549,15 µM
same,EC50,MDA-MB-231 cells,4.5 µM
"COCCOCCOCCOCCOCCOCCSSCCNCCCN [1LP65, m-PEG6-S-S-WR1065]","LC99, average across cell lines",human cancer cell lines; [2],126 ± 15.8 µM
same,"LC99, range",human cancer cell lines; [2],83.5 to 234 µM
same,"TGI, average across cell lines",human cancer cell lines; [2],69.3 ± 10.3 µM
same,"TGI, range",human cancer cell lines; [2],32.7 to 126 µM
same,fold greater cytostatic effect than amifostine,human cancer cell lines,2.1 fold
same,GI50,"human cancer cell lines; Homo sapiens, 48 h, read-out: GI50, average across cell lines, 48-hour, 15 cancer cell lines (4SP65), 11 (1LP65)",41.2 ± 5.4 µM
same,GI50,"human cancer cell lines; Homo sapiens, 48 h, read-out: GI50, range for individual cell lines, 48-hour, 15 cancer cell lines (4SP65), 11 (1LP65)",21.3 to 77.7 µM
same,CC50,"human cancer cell lines; Homo sapiens, 48 h, read-out: LC50, average across cell lines",94.6 ± 12.8 µM
same,CC50,"human cancer cell lines; Homo sapiens, 48 h, read-out: LC50, range",51.3 to 157 µM
same,GI50,"human cancer cell lines; Homo sapiens, read-out: average GI50, HCC38, PC3, SKOV3, and TOV21G",30.4 µM
same,"fold more potent than amifostine as a cytostatic agent, averaging",human cancer cell lines,5.9 fold
same,GI50,"Vero cells; Chlorocebus sabaeus, Vero",46.6 ± 2.6 µM
same,LC99,Vero cells; VERO,183.4 ± 6.2 µM
same,TGI,Vero cells; VERO,82.8 ± 2.9 µM
